Assays:
[1] = test system: SW620 colorectal cancer cell line; assay: Flow cytometry of EpCAM positive cells and cancer stem cell (CD44+CD133-) subpopulation after incubation with cytokines; type: cell-based, human; conditions: for % Gated, R4 (CD44FITC, CD133 PE) / % Total, R4 (CD44FITC, CD133 PE): population R4 & R14 & R2 & R1; for % Gated, R5 (CD44FITC, CD133 PE) / % Total, R5 (CD44FITC, CD133 PE): population R5 & R14 & R2 & R1; for % Gated, R6 (CD44FITC, CD133 PE) / % Total, R6 (CD44FITC, CD133 PE): population R6 & R14 & R2 & R1; for % Gated, R7 Cancer Stem Cell (CSC) (CD44+CD133-) / % Total, R7 Cancer Stem Cell (CSC) (CD44+CD133-): population R7 & R14 & R2 & R1; for % Gated, R8 (CD44FITC, EpCAMefluor710) / % Total, R8 (CD44FITC, EpCAMefluor710): population R8 & R14 & R2 & R1; for % Gated, R9 EpCAM positive Cells (CD44FITC, EpCAMefluor710) / % Total, R9 EpCAM positive Cells (CD44FITC, EpCAMefluor710): population R9 & R14 & R2 & R1; for % Gated, R10 EpCAM positive Cells (CD44FITC, EpCAMefluor710) / % Total, R10 EpCAM positive Cells (CD44FITC, EpCAMefluor710): population R10 & R14 & R2 & R1; for % Gated, R11 (CD44FITC, EpCAMefluor710) / % Total, R11 (CD44FITC, EpCAMefluor710): population R11 & R14 & R2 & R1; for putative stem cell population (CD44+/CD133-): SW620; for percentage of cancer stem cells: human cancer cell line, single agent at 1000 pg/ml
Experimental: This number returned to near baseline 21% at 48 hours. […] This change was transient, occurring within 24 hours and rapidly returning to baseline.
The data from the scatter plots of FIGS. 1A-1H, 2A-2H, and 3A-3H are reproduced below in Tables 1-3.
Based on the above data of potentiating the effectiveness of chemotherapy by exposing cancer cells to specific cytokines such as HGF and or Il-6 within a time limited fashion, the mechanism behind this ability to sensitize cancer cells may not simply be triggering cellular proliferation. Specific cytokine exposures can transiently cause a cancer cell population to differentiate away from a more stem cell enriched, mesenchymal phenotype towards a more differentiated, epithelial cell population more sensitive to the effects of anti-cancer therapies (see Tables 1-3).
In particular, exposure to a control population of SW620 colorectal cancer cell line to HGF at a concentration of 10 ng per ml for 24 hours caused the control putative stem cell population (CD44+/CD133−) to drop from 33% at baseline (see Table 1, R7 region, CD 44 positive/CD133 negative) to 1% (see Table 2, R7, region CD 44 positive/CD133 negative). This drop was transient, as exposure to the same cell line for 48 hours of HGF at 10 ng per ml transitioned the phenotypic distribution back towards a stem cell enriched phenotype with 23% putative stem cells (see Table 3, R7 region, CD 44 positive/CD133 negative).

[2] = test system: SW 620 cell lines; assay: Cancer stem cells remaining after cytokine exposure and 24 hours exposure to CPT-11 (Irinotecan); type: cell-based, human; conditions: FIG. 4
Experimental: FIG. 4 depicts a table showing percentage of Cancer Stem Cells remaining after exposure to various cytokines and 24 hours exposure to CPT-11 (Irinotecan). The present inventor then performed experiments to determine if exposure to HGF would improve the effectiveness of chemotherapy treatment, based on a prediction that this stimulus, by fostering differentiation of the stem cell subpopulation, would render these cells more susceptible to chemotherapy. […] Furthermore, exposure to HGF alone for 24 hours at a concentration of 10 ng per ml followed by treatment with CPT-11 in SW 620 cell lines was able to kill cancer stem cells effectively as well, given that there were no remaining cancer stem cells after this sensitization (FIG. 4 0% CD44+/CD133−).

[3] = test system: PANC1; assay: Cancer cell viability after 48 hours HGF only pretreatment followed by 72 hour combination treatment; type: cell-based, human; conditions: 48 hours HGF exposure followed by 72 hour combination treatment; FIG. 7
Experimental: FIG. 7 depicts tables showing cancer cell viability after 48 hours of HGF only pretreatment, followed by 72 hour combination treatment. HI1=HGF 0.5 ng/ml; H12=HGF 1 ng/ml; HI3=HGF 5 ng/ml. A) PANC1 48 hour HGF exposure followed by 72 hour combination treatment (COMBO=30 paclitaxel, 250 μg/mL oseltamivir phosphate, and 2.5 mM aspirin). B) PANC1 48 hour HGF exposure followed by 72 hour combination treatment (COMBO=50 μM paclitaxel, 250 μg/mL oseltamivir phosphate, and 2.5 mM aspirin).
(§1) In the following experiments various concentrations of hepatocyte growth factor (HGF) and Interleukin 6 (IL-6), used singly and together, were used to sensitize cancer cell lines to cytotoxic chemotherapy. In these experiments a combination anti-cancer treatment of paclitaxel with aspirin and oseltamivir phosphate (OP) were used. Cell lines treated with the combination treatment (COMBO) alone were compared with those treated with the combination treatment after exposure to cytokines.
In FIG. 7, exposing human pancreatic cancer cell lines (PANC-1) cells to HGF for 48 hours at various concentrations sensitized cancer cells to subsequent combination treatment. […] P-value in FIG. 7 was calculated based on comparison between Combination Treatment vs. Pretreatment Followed by Combination Treatment.

[4] = test system: cancer cells; assay: Cancer cell viability after 72 hours HGF only pretreatment followed by 72 hour combination treatment; type: cell-based; conditions: 72 hours HGF exposure followed by 72 hour combination treatment; FIG. 8
Experimental: FIG. 8 depicts a table showing cancer cell viability after 72 hours of HGF only pretreatment, followed by 72 hour combination treatment (COMBO=30 μM paclitaxel, 250 μs/mL oseltamivir phosphate, and 2.5 mM aspirin). HI1=HGF 0.5 ng/ml; HI2=HGF 1 ng/ml; HI3=HGF 5 ng/ml.
as §1
Thus, exposure to this particular cytokine, for longer than 48 hours can increase the likelihood that the cancer cell population is transitioning over to a more stem cell enriched phenotype, rendering the cells less sensitive to the effects of cytotoxic therapies. Other cytokines such as HGF, IL-6, PGE-2, MCP-1, MMP-9, TGF-beta, PDGF-BB, and PGF, the up-regulation of which is associated with stem cell enrichment should also be administered in this time limited manner to avoid a stem cell enriched phenotype that is more resistant to the chemotherapy treatment. […]

[5] = after exposure to HGF, then chemotherapy (CPT-11)

HGF: Hepatocyte Growth Factor, cytokine
% Gated, R4 (CD44FITC, CD133 PE) ([1]; 0 hour incubation): 48.6% | % Total, R4 (CD44FITC, CD133 PE) ([1]; 0 hour incubation): 46.6% | % Gated, R5 (CD44FITC, CD133 PE) ([1]; 0 hour incubation): 3.61% | % Total, R5 (CD44FITC, CD133 PE) ([1]; 0 hour incubation): 3.45% | % Gated, R6 (CD44FITC, CD133 PE) ([1]; 0 hour incubation): 14.2% | % Total, R6 (CD44FITC, CD133 PE) ([1]; 0 hour incubation): 13.6% | % Gated, R7 Cancer Stem Cell (CSC) (CD44+CD133-) ([1]; 0 hour incubation): 33.8% | % Total, R7 Cancer Stem Cell (CSC) (CD44+CD133-) ([1]; 0 hour incubation): 32.3% | % Gated, R8 (CD44FITC, EpCAMefluor710) ([1]; 0 hour incubation): 5.28% | % Total, R8 (CD44FITC, EpCAMefluor710) ([1]; 0 hour incubation): 5.06% | % Gated, R9 EpCAM positive Cells (CD44FITC, EpCAMefluor710) ([1]; 0 hour incubation): 53.1% | % Total, R9 EpCAM positive Cells (CD44FITC, EpCAMefluor710) ([1]; 0 hour incubation): 50.9% | % Gated, R10 EpCAM positive Cells (CD44FITC, EpCAMefluor710) ([1]; 0 hour incubation): 39% | % Total, R10 EpCAM positive Cells (CD44FITC, EpCAMefluor710) ([1]; 0 hour incubation): 37.4% | % Gated, R11 (CD44FITC, EpCAMefluor710) ([1]; 0 hour incubation): 2.16% | % Total, R11 (CD44FITC, EpCAMefluor710) ([1]; 0 hour incubation): 2.07% | % Gated, R4 (CD44FITC, CD133 PE) ([1]; 24 h incubation): 98.6% | % Total, R4 (CD44FITC, CD133 PE) ([1]; 24 h incubation): 84.7% | % Gated, R5 (CD44FITC, CD133 PE) ([1]; 24 h incubation): 0% | % Total, R5 (CD44FITC, CD133 PE) ([1]; 24 h incubation): 0% | % Gated, R6 (CD44FITC, CD133 PE) ([1]; 24 h incubation): 0.07% | % Total, R6 (CD44FITC, CD133 PE) ([1]; 24 h incubation): 0.06% | % Gated, R7 Cancer Stem Cell (CSC) (CD44+CD133-) ([1]; 24 h incubation): 1.01% | % Total, R7 Cancer Stem Cell (CSC) (CD44+CD133-) ([1]; 24 h incubation): 0.87% | % Gated, R8 (CD44FITC, EpCAMefluor710) ([1]; 24 h incubation): 99.8% | % Total, R8 (CD44FITC, EpCAMefluor710) ([1]; 24 h incubation): 85.7% | % Gated, R9 EpCAM positive Cells (CD44FITC, EpCAMefluor710) ([1]; 24 h incubation): 0.02% | % Total, R9 EpCAM positive Cells (CD44FITC, EpCAMefluor710) ([1]; 24 h incubation): 0.02% | % Gated, R10 EpCAM positive Cells (CD44FITC, EpCAMefluor710) ([1]; 24 h incubation): 0.02% | % Total, R10 EpCAM positive Cells (CD44FITC, EpCAMefluor710) ([1]; 24 h incubation): 0.02% | % Gated, R11 (CD44FITC, EpCAMefluor710) ([1]; 24 h incubation): 0.2% | % Total, R11 (CD44FITC, EpCAMefluor710) ([1]; 24 h incubation): 0.17% | % Gated, R4 (CD44FITC, CD133 PE) ([1]; 48 h incubation): 38% | % Total, R4 (CD44FITC, CD133 PE) ([1]; 48 h incubation): 34.2% | % Gated, R5 (CD44FITC, CD133 PE) ([1]; 48 h incubation): 7.48% | % Total, R5 (CD44FITC, CD133 PE) ([1]; 48 h incubation): 6.73% | % Gated, R6 (CD44FITC, CD133 PE) ([1]; 48 h incubation): 31.3% | % Total, R6 (CD44FITC, CD133 PE) ([1]; 48 h incubation): 28.2% | % Gated, R7 Cancer Stem Cell (CSC) (CD44+CD133-) ([1]; 48 h incubation): 23.9% | % Total, R7 Cancer Stem Cell (CSC) (CD44+CD133-) ([1]; 48 h incubation): 21.5% | % Gated, R8 (CD44FITC, EpCAMefluor710) ([1]; 48 h incubation): 20% | % Total, R8 (CD44FITC, EpCAMefluor710) ([1]; 48 h incubation): 18% | % Gated, R9 EpCAM positive Cells (CD44FITC, EpCAMefluor710) ([1]; 48 h incubation): 34.7% | % Total, R9 EpCAM positive Cells (CD44FITC, EpCAMefluor710) ([1]; 48 h incubation): 31.2% | % Gated, R10 EpCAM positive Cells (CD44FITC, EpCAMefluor710) ([1]; 48 h incubation): 31.8% | % Total, R10 EpCAM positive Cells (CD44FITC, EpCAMefluor710) ([1]; 48 h incubation): 28.7% | % Gated, R11 (CD44FITC, EpCAMefluor710) ([1]; 48 h incubation): 14.4% | % Total, R11 (CD44FITC, EpCAMefluor710) ([1]; 48 h incubation): 12.9% | putative stem cell population (CD44+/CD133-) ([1]; 10 ng per ml for 24 hours (Table 2, R7 region)): 1% | putative stem cell population (CD44+/CD133-) ([1]; 10 ng per ml for 48 hours (Table 3, R7 region)): 23% | putative stem cell population (CD44+/CD133-) ([1]; at baseline (Table 1, R7 region)): 33% | percentage of cancer stem cells ([1]; at 24 hours): less than one percent | percentage of cancer stem cells ([1]; at 48 hours): 21% | percentage of cancer stem cells ([1]; prior to exposure): approximately 30% | remaining cancer stem cells CD44+/CD133- ([2]; HGF alone 24 hours at 10 ng per ml followed by CPT-11, SW 620): 0% | cancer stem cells killed [2, 5]: 100% | viable cancer stem cells remaining [2, 5]: no viable cancer stem cells remaining | reduction in cell viability [3]: 87% | sensitization of cancer cells to the combination treatment [4]: made the combination treatment less effective

From patent publication US20190209650A1, “METHOD TO IMPROVE THE EFFECTIVENESS OF ANTI-CANCER THERAPIES BY EXPOSING CANCER CELLS TO AN INFLAMMATORY STIMULUS PRIOR TO TREATMENT” (priority 2016, published 2019)
